{"source": "patent US6498137B1", "about": "“Aerosol cleaning composition containing an organic acid and a spore forming microbial composition” (Spartan Chemical Company, Inc., priority 2001, dated 2002)", "key": {"Bacillus spores": {"test_system": "Bacillus spores", "test": "Nisin in letheen broth sub-culture: out-growth of Bacillus spores", "type": "cell-based", "settings": "0.1 μg/ml nisin in letheen broth", "procedure": "(§1) Nisin is not an ingredient in the product formulation. It is a modification to the AOAC test method. Specifically, when setting up the test sub-culture 0.1 μg/ml of nisin is added to the letheen broth."}, "test organism": {"test_system": "test organism", "test": "Nisin in letheen broth sub-culture: effect on the test organism", "type": "cell-based", "settings": "0.1 μg/ml nisin in letheen broth", "procedure": "as §1"}}}
{"substance": "nisin", "values": [{"measurement": "out-growth of Bacillus spores transferred on the carrier", "setting": "Bacillus spores", "result": "inhibits out-growth"}, {"measurement": "bacteriostatic effect on the test organism", "setting": "test organism", "result": "no bacteriostatic effect"}]}
